According to patent US9271963B2, “Selective inhibitors of human corticosteroid synthases” (UNIVERSITAT DES SAARLANDES, priority 2005, dated 2016):
Read-outs that look alike come from different tables or passages of the source.

Tests used:
[1] = target: T1, CYP11B1 (Homo sapiens (Human), UniProt P15538); test: Inhibition test in V79 MZh11B1 cells (hamster fibroblasts expressing human CYP11B1); assay type: cell-based
[2] = target: T2, CYP11B2 (Homo sapiens (Human), UniProt P19099); test: Screening test in transgenic fission yeast (S. pombe) expressing human CYP11B2; assay type: cell-based
[3] = target: human CYP17 (Homo sapiens (Human), UniProt P05093); test: CYP17 inhibition, membrane fraction of E. coli expressing human CYP17; assay type: biochemical; details: Table 1, progesterone 2.5 μM; for inhibition at 2.5 µM: inhibitor 2.5 μM, read-out: % Inhib. Human CYP17; for IC50: read-out: IC50 Human CYP17 (values in brackets)
[4] = target: T2, CYP11B2; test: Inhibition test in V79 MZh11B2 cells (hamster fibroblasts expressing human CYP11B2); assay type: cell-based; details: Table 1; deoxycorticosterone substrate 100 nM; read-out: IC50 value V79 11B2 hCYP11B2
[5] = target: T2, CYP11B2; test: cell-based; details: NCI-H295R
[6] = target: T1, CYP11B1; test: cell-based; details: NCI-H295R, read-out: NCI-H295R CYP11B1 RSS % inhibition
[7] = target: T1, CYP11B1; details: NCI-H295R
[8] = target: human placental CYP19 (Homo sapiens (Human), UniProt P11511); test: CYP19 (aromatase) inhibition, human placental microsomes; assay type: biochemical; details: Table 1, androstenedione 2.5 μM; for % Inhib. Human CYP19 (values in brackets): inhibitor concentration not given
[9] = system: steroid production in H295R cells; test: cells; assay type: cell-based, human; details: for aldosterone secretion: within 6 hours; for IC50 / inhibition at 2.5 µM: Homo sapiens, NCI-H295R; for inhibition at 2.5 µM: inhibitor 2.5 μM
[10] = Table 1, deoxycorticosterone substrate 100 nM, read-out: IC50 value V79 11B1 hCYP11B1
[11] = read-out: IC50 in V79MZh 11B1 cells (CYP11B1 inhibition)
[12] = Table 1, S. pombe cells expressing human CYP11B2, deoxycorticosterone 100 nM, inhibitor 500 nM, read-out: % Inhib. Human hCYP11B2
[13] = read-out: NCI-H295R CYP11B2 B % inhibition
[14] = read-out: NCI-H295R CYP11B2 DOC % inhibition
[15] = H295R, 6 h incubation, read-out: % inhibition of DHEA production
[16] = H295R, 6 h incubation, read-out: % inhibition of aldosterone production
[17] = H295R, 6 h incubation, read-out: % inhibition of androstendione production
[18] = H295R, 6 h incubation, read-out: % inhibition of cortisol production

T2 sequence (P19099 25-503): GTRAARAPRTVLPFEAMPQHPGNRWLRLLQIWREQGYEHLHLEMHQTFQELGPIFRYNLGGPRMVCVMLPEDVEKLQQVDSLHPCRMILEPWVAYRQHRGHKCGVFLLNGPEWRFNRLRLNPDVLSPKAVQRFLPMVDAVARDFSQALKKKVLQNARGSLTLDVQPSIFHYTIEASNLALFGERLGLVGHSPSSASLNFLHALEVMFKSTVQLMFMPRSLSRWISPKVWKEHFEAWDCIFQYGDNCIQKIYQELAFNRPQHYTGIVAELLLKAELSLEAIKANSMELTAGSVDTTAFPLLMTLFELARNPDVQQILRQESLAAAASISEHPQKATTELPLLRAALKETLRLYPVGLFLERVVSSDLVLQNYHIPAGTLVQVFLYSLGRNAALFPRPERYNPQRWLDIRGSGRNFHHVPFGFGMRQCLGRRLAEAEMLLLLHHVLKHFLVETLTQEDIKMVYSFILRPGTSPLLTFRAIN
Chain of human CYP17 (P05093 whole entry): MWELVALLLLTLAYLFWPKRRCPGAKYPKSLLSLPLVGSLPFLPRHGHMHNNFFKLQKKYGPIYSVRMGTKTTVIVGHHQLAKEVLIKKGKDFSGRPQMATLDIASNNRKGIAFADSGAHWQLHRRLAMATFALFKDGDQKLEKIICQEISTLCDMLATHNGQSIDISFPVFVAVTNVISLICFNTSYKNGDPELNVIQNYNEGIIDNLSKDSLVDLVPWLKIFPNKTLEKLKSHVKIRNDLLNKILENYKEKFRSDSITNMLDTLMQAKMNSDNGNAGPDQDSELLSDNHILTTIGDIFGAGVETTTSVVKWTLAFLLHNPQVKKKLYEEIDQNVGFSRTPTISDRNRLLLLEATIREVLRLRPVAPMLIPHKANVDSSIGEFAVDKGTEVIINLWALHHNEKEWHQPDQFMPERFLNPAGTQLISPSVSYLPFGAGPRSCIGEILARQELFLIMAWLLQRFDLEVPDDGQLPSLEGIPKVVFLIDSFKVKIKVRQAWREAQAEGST
T1 sequence (P15538 25-503): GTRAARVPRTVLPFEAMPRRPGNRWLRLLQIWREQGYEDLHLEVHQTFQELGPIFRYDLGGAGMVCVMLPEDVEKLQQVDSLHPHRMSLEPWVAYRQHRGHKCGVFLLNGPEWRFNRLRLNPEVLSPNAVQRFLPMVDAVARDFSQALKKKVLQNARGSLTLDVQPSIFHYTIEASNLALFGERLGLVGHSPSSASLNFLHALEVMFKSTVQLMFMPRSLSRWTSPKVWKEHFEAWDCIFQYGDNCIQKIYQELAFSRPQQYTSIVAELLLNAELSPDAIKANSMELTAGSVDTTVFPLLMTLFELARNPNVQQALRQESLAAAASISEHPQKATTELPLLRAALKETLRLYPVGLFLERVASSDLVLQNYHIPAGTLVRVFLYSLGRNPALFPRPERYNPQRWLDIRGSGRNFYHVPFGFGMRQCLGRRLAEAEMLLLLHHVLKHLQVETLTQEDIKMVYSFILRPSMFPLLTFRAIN
Chain of human placental CYP19 (P11511 whole entry): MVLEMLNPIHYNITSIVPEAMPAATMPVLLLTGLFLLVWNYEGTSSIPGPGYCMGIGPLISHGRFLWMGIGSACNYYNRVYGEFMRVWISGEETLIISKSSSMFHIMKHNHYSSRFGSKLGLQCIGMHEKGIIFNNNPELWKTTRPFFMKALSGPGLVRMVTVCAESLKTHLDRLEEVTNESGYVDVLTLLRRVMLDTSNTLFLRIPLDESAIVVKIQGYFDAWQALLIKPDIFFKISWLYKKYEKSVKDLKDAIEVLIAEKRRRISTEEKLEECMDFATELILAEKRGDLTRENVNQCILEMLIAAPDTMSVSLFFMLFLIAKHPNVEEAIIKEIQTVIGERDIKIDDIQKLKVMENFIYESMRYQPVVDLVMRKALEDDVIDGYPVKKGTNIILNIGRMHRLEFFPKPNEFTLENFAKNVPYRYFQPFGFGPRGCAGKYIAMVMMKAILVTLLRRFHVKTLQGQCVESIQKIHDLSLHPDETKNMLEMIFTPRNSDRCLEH

Row | SMILES | IC50 [1, 10] [µM] | inhibition at 0.5 µM [2, 12] [%] | inhibition at 2.5 µM [3] [%] | IC50 [4] [µM] | IC50 [8] [µM] | further results
1 | c1ccc2cc(-n3ccnc3)ccc2c1 [Compound 23, 1-(2-Naphthyl)-1H-imidazole] | 1.05 | 80 | 13 | 0.038 |  | 
2 | c1ccc2cc(-c3c[nH]cn3)ccc2c1 [Compound 27, 4(5)-(2-Naphthyl)-1H-imidazole] | 0.206 |  |  |  |  | IC50 [1, 11]: 0.206 µM; % Inhib. Human hCYP11B2 ([2]; Table 1, S. pombe cells expressing human CYP11B2, deoxycorticosterone 100 nM, inhibitor 500 nM): 41%
3 | COc1ccc2cc(-c3cccnc3)ccc2c1Cl [Compound 9, 3-(5-Chloro-6-methoxy-2-naphthyl)pyridine] | 0.569 | 86 | 32 | 0.013 | 1.8 | 
4 | COc1ccc2c(Cl)c(-c3cccnc3)ccc2c1Cl [Compound 12, 3-(1,5-Dichloro-6-methoxy-2-naphthyl)pyridine] | 1.54 | 82 |  | 0.028 | 0.97 | IC50 [3]: 0.233 µM
5 | COc1ccc2ccc(-c3cccnc3)c(Cl)c2c1 [Compound 14, 3-(1-Chloro-7-methoxy-2-naphthyl)pyridine] | 0.771 | 85 |  | 0.029 |  | IC50 [3]: 0.027 µM; % Inhib. Human CYP19 (values in brackets) [8]: [65] %
6 | COc1cc2ccccc2cc1-c1cccnc1 [Compound 15, 3-(3-Methoxy-2-naphthyl)pyridine] |  | 38 |  |  |  | 
7 | COc1cc2ccccc2cc1-n1ccnc1 [Compound 24, 1-(3-Methoxy-2-naphthyl)-1H-imidazole] | 5.01 | 86 | 4 | 0.04 | 0.129 | 
8 | CC(=O)N1CCN(c2ccc(OCC3COC(Cn4ccnc4)(c4ccc(Cl)cc4Cl)O3)cc2)CC1 (stereo not shown) [Ketoconazole, reference compound] |  |  |  |  |  | aldosterone secretion ([9]; H295R): significant concentration-dependent decrease; IC50 ([9]; 6 h, read-out: IC50 of DHEA production): 0.0518 µM; IC50 ([9]; 6 h, read-out: IC50 of aldosterone production): 13.1 µM; IC50 ([9]; 6 h, read-out: IC50 of androstendione production): 0.0596 µM; IC50 ([9]; 6 h, read-out: IC50 of cortisol production): 0.155 µM; inhibition at 2.5 µM [9, 15]: 94.4 ± 0.6%; inhibition at 2.5 µM [9, 16]: 33.3 ± 3.3%; inhibition at 2.5 µM [9, 17]: 89.2 ± 1.2%; inhibition at 2.5 µM [9, 18]: 88.1 ± 1%
9 | COc1ccc2c(c1)CCC(n1ccnc1)=C2 [Compound 46, 1-(6-Methoxy-3,4-dihydronaphthalene-2-yl)-1H-imidazole] |  |  |  |  |  | IC50 [1, 11]: 0.206 to 0.805 µM; IC50 ([1]; read-out: IC50 value V79 11B1 hCY11B1): 0.763 µM; CYP11B2 inhibition in S. pombe [2]: very low; inhibition at 0.5 µM ([2]; read-out: % Inhibition Human hCYP11B2): 35%
10 | COc1ccc2cc(-c3cccnc3)ccc2c1Br [Compound 10, 3-(5-Bromo-6-methoxy-2-naphthyl)pyridine] | 1.53 | 68 | 38 | 0.033 | 9.11 | 
11 | COc1ccc2cc(-c3cccnc3)ccc2c1 [Compound 2, 3-(6-Methoxy-2-naphthyl)pyridine] |  |  |  |  | 0.586 | inhibition at 2.5 µM [5, 13]: 49.5 ± 2.4%; inhibition at 2.5 µM [5, 14]: 81.4 ± 6.6%; IC50 [3]: 0.667 µM; inhibition at 2.5 µM [6]: 48.5 ± 2.9%; cortisol production compared with aldosterone production ([9]; H295R model): cortisol production is inhibited more strongly than the aldosterone production; androsterone production (so in the source) ([9]; H295R, 6 h): inhibited only to a low extent; aldosterone secretion ([9]; H295R): significant concentration-dependent decrease; inhibition at 2.5 µM [9, 15]: 84.5 ± 2%; inhibition at 2.5 µM [9, 16]: 56.4 ± 3.5%; inhibition at 2.5 µM [9, 17]: 84.6 ± 2%; inhibition at 2.5 µM [9, 18]: 78.6 ± 5.4%; IC50 ([9]; H295R, 6 h incubation, read-out: IC50 of DHEA production): < 0.001 µM; IC50 ([9]; H295R, 6 h incubation, read-out: IC50 of aldosterone production): 0.963 µM; IC50 ([9]; H295R, 6 h incubation, read-out: IC50 of androstendione production): < 0.001 µM; IC50 ([9]; H295R, 6 h incubation, read-out: IC50 of cortisol production): < 0.001 µM; influence on CYP11B1 in comparison with fadrozole [7]: clearly lower extent
12 | C1=C(n2ccnc2)CCc2ccccc21 [Compound 45, 1-(3,4-Dihydronaphthalene-2-yl)-1H-imidazole] |  |  |  |  |  | CYP11B2 inhibition in S. pombe [2]: very low; inhibition at 0.5 µM ([2]; Table 2, S. pombe cells expressing human CYP11B2, deoxycorticosterone 100 nM, inhibitor 500 nM, read-out: % Inhibition Human hCYP11B2): 34%
13 | COc1ccc2cc(-c3cncnc3)ccc2c1 [Compound 30, 5-(6-Methoxy-2-naphthyl)pyrimidine] |  | 46 |  |  |  | 

Continued, in another order:

Row | IC50 [1, 10] [µM] | inhibition at 0.5 µM [2, 12] [%] | inhibition at 2.5 µM [3] [%] | IC50 [4] [µM] | IC50 [8] [µM] | SMILES | further results
14 | 0.805 | 16 |  |  |  | c1ccc2cc(-c3cnco3)ccc2c1 [Compound 29, 5-(2-Naphthyl)-1,3-oxazole] | IC50 [1, 11]: 0.206 to 0.805 µM; CYP11B2 inhibition in S. pombe [2]: very low
15 |  |  | 40 |  |  | c1cncc(-c2ccc3ccccc3c2)c1 [Compound 1, 3-(2-Naphthyl)pyridine] | inhibition at 2.5 µM [5, 13]: 45.6 ± 2.2%; inhibition at 2.5 µM [5, 14]: 82.9 ± 0.9%; inhibition at 2.5 µM [6]: 43.4 ± 4.7%; influence on CYP11B1 in comparison with fadrozole [7]: clearly lower extent
16 | 10.5 | 66 | 12 | 0.073 | 1.25 | COC(=O)c1ccc2cc(-c3cccnc3)ccc2c1 [Compound 16, Methyl-6-pyridin-3-yl-2-naphthoate] | 
17 | 0.899 | 85 | 46 | 0.015 |  | Brc1ccc2cc(-c3cccnc3)ccc2c1 [Compound 4, 3-(6-Bromo-2-naphthyl)pyridine] | % Inhib. Human CYP19 (values in brackets) [8]: [33] %
18 | 0.883 | 86 | 53 | 0.012 | 6.64 | CCOc1ccc2cc(-c3cccnc3)ccc2c1 [Compound 5, 3-(6-Ethoxy-2-naphthyl)pyridine] | 
19 |  | 46 |  |  |  | COc1ccc2ccc(-c3cccnc3)cc2c1 [Compound 13, 3-(7-Methoxy-2-naphthyl)pyridine] | 
20 | 0.715 | 88 | 65 | 0.023 |  | Oc1ccc2cc(-c3cccnc3)ccc2c1 [Compound 3, 6-Pyridin-3-yl-2-naphthol] | % Inhib. Human CYP19 (values in brackets) [8]: [61] %
21 | 0.691 | 98 |  | 0.003 |  | N#Cc1ccc2cc(-c3cccnc3)ccc2c1 [Compound 8, 6-Pyridin-3-yl-2-naphthonitrile] | IC50 [3]: 0.686 µM; % Inhib. Human CYP19 (values in brackets) [8]: [44] %
22 |  | 53 |  |  |  | c1cncc(-c2ccc3ccccc3n2)c1 [Compound 20, 2-Pyridin-3-ylquinoline] | 
23 |  | 40 |  |  |  | c1cncc(-c2cnc3ccccc3c2)c1 [Compound 19, 3-Pyridin-3-ylquinoline] | 
